Patent US20170156335A1, “SYSTEMS AND METHODS FOR RELEASING CHLORINE DIOXIDE” (priority 2014, published 2017)

Tested on: Raoultella (Klebsiella) terrigena (R. terrigena, ATCC 33257)
Assay: Anti-microbial activity test (AMA) in water bottles vs Raoultella terrigena
Format: cell-based
Conditions: AWT018; without SC

With `CCOC(C)=O` [EtOAc, Ethyl acetate] the “antimicrobial potential of formulation additives” value was “no antimicrobial potential”.
